Assay results from patent publication US7960410B2, “Method for treating insulin resistance, abdominal obesity, hypertension, hyperinsulinemia, and elevated blood lipids with a cortisol inhibitor” (Cortendo AB, priority 1994, dated 2011).
Several values for one entry are separate records, joined by “and”; a condition that tells them apart may be missing. Equal values may be shown once. Entries after “also recorded” stand apart in the source; their conditions may differ.

Tested on: women with diabetes mellitus type II
Test: Clinical tests of women with diabetes mellitus type II treated with ketoconazole
Format: in vivo, human
Settings: for Serum-ASAT / Serum-ALAT / GIR (glucose infusion rate during euglycemic glucose clamp), indicating insulin sensitivity / Fasting serum total cholesterol / Diastolic blood pressure measured after 5 min. in supine position, 2 measurements averaged / Systolic blood pressure measured after 5 min. in supine position, 2 measurements averaged / Fasting blood glucose: after treatment
Experimental: We have investigated a group of people with diabetes mellitus type II.
Group 1 consists of 3 patients (mean age: 46 years) treated with ketoconazole for 2 weeks, administered orally 22:00 in the evening in the dose of 400 mg.
Group 2 consists of 5 patients (mean age: 51 years) treated with ketoconazole for 6 weeks, administered orally 22:00 in the evening in the dose of 400 mg. Results are expressed as mean values within groups.

[1] = diabetes mellitus type II patients, after vs before treatment

In the case of CC(=O)N1CCN(c2ccc(OCC3COC(Cn4ccnc4)(c4ccc(Cl)cc4Cl)O3)cc2)CC1 (stereo not shown) [ketoconazole], the Serum-ASAT (Group 1: 400 mg orally 22:00 for 2 weeks, group mean (before: 0.36)) was 0.33 μkat/L, the Serum-ALAT (Group 1: 400 mg orally 22:00 for 2 weeks, group mean (before: 0.61)) was 0.52 μkat/L and the “GIR (glucose infusion rate during euglycemic glucose clamp), indicating insulin sensitivity” value (Group 1: 400 mg orally 22:00 for 2 weeks, group mean (before: 0.9)) was 1.85 mg glucose per minute divided by lean body mass. For the same compound, the “Fasting serum total cholesterol” value (Group 1: 400 mg orally 22:00 for 2 weeks, group mean (before: 5.80)) was 5.67 mmol/L, the “Diastolic blood pressure measured after 5 min. in supine position, 2 measurements averaged” value (Group 1: 400 mg orally 22:00 for 2 weeks, group mean (before: 70)) was 70 mm Hg and the “Systolic blood pressure measured after 5 min. in supine position, 2 measurements averaged” value (Group 1: 400 mg orally 22:00 for 2 weeks, group mean (before: 140)) was 135 mm Hg. The Fasting blood glucose (Group 1: 3 patients, 400 mg orally 22:00 for 2 weeks, group mean (before: 10.20)) was 8.77 mmol/L, the Serum-ASAT (Group 2: 400 mg orally 22:00 for 6 weeks, group mean (before: 0.26)) was 0.25 μkat/L and the Serum-ALAT (Group 2: 400 mg orally 22:00 for 6 weeks, group mean (before: 0.40)) was 0.37 μkat/L. For the same compound, the “GIR (glucose infusion rate during euglycemic glucose clamp), indicating insulin sensitivity” value (Group 2: 400 mg orally 22:00 for 6 weeks, group mean (before: 2.97)) was 4.32 mg glucose per minute divided by lean body mass, the “Fasting serum total cholesterol” value (Group 2: 400 mg orally 22:00 for 6 weeks, group mean (before: 4.80)) was 4.10 mmol/L and the “Diastolic blood pressure measured after 5 min. in supine position, 2 measurements averaged” value (Group 2: 400 mg orally 22:00 for 6 weeks, group mean (before: 75)) was 72 mm Hg. For the same compound, the “Systolic blood pressure measured after 5 min. in supine position, 2 measurements averaged” value (Group 2: 400 mg orally 22:00 for 6 weeks, group mean (before: 125)) was 123 mm Hg, the Fasting blood glucose (Group 2: 5 patients, 400 mg orally 22:00 for 6 weeks, group mean (before: 7.20)) was 7.10 mmol/L and the “Effect on blood pressure (in words)” value [1] was “decreasing blood pressure values”. For the same compound, the “Effect on insulin sensitivity / insulin resistance (in words), euglycemic glucose clamp” value [1] was “a reduction of the insulin insensitivity (resistance); also recorded: improved insulin sensitivity; also recorded: a remarkable improvement of insulin sensitivity”, the “Effect on plasma cholesterol levels (in words)” value [1] was “Reduced cholesterol levels in the plasma” and the “Effect on blood glucose (in words)” value (diabetes mellitus type II patients, after vs before treatment for 2 and 6 weeks, fasting or 2 hours after i.v. glucose infusion) was “lower blood glucose after treatment compared to before treatment; also recorded: a decrease in blood glucose”. For the same compound, the “Blood glucose 2 hours after start of an i.v. glucose infusion” value (human, in vivo) was 7.90 mmol/L and 5.76 mmol/L.
